The numbers were not newly measured in patent publication US5710046A, “Tagging hydrocarbons for subsequent identification” (Amoco Corporation, priority 1994, dated 1998), which cites them from elsewhere.

The mark [1] stands for this setting: dispersed in methanol or benzene.

As to `CCN1C(=CC=CC=CC=Cc2sc3ccc4ccccc4c3[n+]2CC)Sc2ccc3ccccc3c21` [DDTC, 3,3'-diethyl-2,2'-(4,5', 4',5'-dibenzo) thiatricarbocyanine iodide], under setting [1], the fluorescence wavelength entry is “approximately 840 nanometers” and the strong absorption is reported as 786 nanometers. For the same compound, under “in water”, the fluorescence entry is on record as “completely non-fluorescent” and the solubility entry is given as “less soluble”.
